Experimental findings from patent publication US9388133B2, “Pyrrole sulfonamide derivative, preparation method for same, and medical application thereof” (Jiangsu Hansoh Pharmaceutical Co., Ltd., priority 2012, dated 2016) are described below.

The target in one test is T1, H^+/K^+-ATPase (Sus scrofa, UniProt P19156).
T1 construct: Microsomes of porcine gastric mucosal (rich in H^+/K^+-ATPase) obtained by sucrose gradient centrifugation; from tissue; host or cells: porcine gastric mucosa microsomes (self-manufactured, sucrose/ficoll gradient centrifugation)
The experiment in a line: H+/K+-ATPase enzyme activity inhibition (malachite green, microsomes of porcine gastric mucosa). It is filed as biochemical. As to conditions: pH 6.5, 10 mmol/L KCl, 37° C. 30 min. The procedure: The following in-vitro screening test was used for determining the inhibition effect of the compounds of the present invention on enzyme activity of H^+/K^+-ATPase.
1. microsomes of porcine gastric mucosa (rich in H^+/K^+-ATPase) (self-manufactured)
1. The compounds were prepared into appropriate concentrations of 10000, 1000, 100, 10, 1 and 0.1 nM with 100% DMSO;
2. Buffer solution 1: 50 mmol/L of HEPES-Tris, 5 mmol/L of magnesium chloride, pH of 6.5;
3. Buffer solution 2: 50 mmol/L of HEPES-Tris, 5 mmol/L of magnesium chloride, pH of 6.5, 10 mmol/L of potassium chloride, pH=6.5;
4. ATP: ATP was diluted with the buffer solution 1 to 2 mM;
5. Malachite green solution: 0.12% of malachite green was dissolved in 2.5 moles of a mixture of sulfuric acid, 7.5% ammonium molybdate and 11% Tween 20, the three components were mixed according to a ratio of 100:25:2 during the use.
6. Microsomes of porcine gastric mucosal (rich in H^+/K^+-ATPase) obtained by sucrose gradient centrifugation: a porcine stomach was washed with running water, and immersed into 3 mol/L of concentrated brine for 1-2 min, and then wiped dry; the gastric mucosas were separated, minced, then suspended in a solution of 0.25 mol/L of sucrose, 1 mmol/L of EDTA, and 10 mmol/L of Tris-HCl; homogenization treatment was performed (the ratio was 100 g:330 mL, and 300 mL was further added after the completion of full homogenization), and the resulting homogenate was centrifugalized at 20000G for 30 min to remove the precipitate; the supernatant fluid was taken and centrifugalized at 100000G for 90 min; the precipitate was taken and suspended in 0.25 mol/L of sucrose solution, 0.25 mol/L of sucrose, 7.5% of ficoll were added at the bottom and centrifugalized at 100000G for 5 h. The substances between two liquid surface layers were collected, and then washed with 0.25 mol/L of sucrose solution while being shaken, and the resulting microsomal enzymes were kept at −80° C. for preservation and later use.
10 μL of microsomes of gastric mucosa (H^+/K^+-ATPase) were added to 79 μL of the buffer solution 2, followed by addition of 1 μL of the compound solutions with various concentrations, and then 10 μL of 2 mM ATP were added to start the reaction. It was reacted at 37° C. for 30 min. 30 μL of malachite green solution was added to terminate the reaction, and the reaction solution was kept at room temperature for 20 min, and then an OD value was read at 620 nm on a Victor3 microplate reader, and the inhibition rates of the compounds at various concentrations against H^+/K^+-ATPase were calculated.
Simultaneously, the reaction without addition of potassium chloride was taken as a background, which was subtracted when enzyme activity was calculated.
IC50 values can be calculated from the inhibition rates of the test compounds at various concentrations.

In test [1] the test system is gastric acid secretion of rats with pyloric ligation induced ulcer. The experiment in a line: Inhibition of gastric acid secretion of rats with pyloric ligation induced ulcer, histamine-stimulated, 1 h after administration (Test Example 2). Type of test: in vivo, rat. The note with it: SD male rats, 2 mg/kg i.g., acid output within 3 h of histamine. The procedure:
A rat gastric ulcer model, in which rat gastric acid secretion was promoted by pyloric ligation and histamine hydrochloride, was established in the following experiment, for evaluating the effect of the test compounds on inhibition of gastric acid secretion.
Sixteen 7-week-old Sprague-Dawley (SD) male rats with a weight of about 250 g were purchased form Sippr-BK (batch number: 2008001621913). The rats were fed by 4 rats/cage, 12/12 h light/dark cyclic regulation was performed, the temperature was constant at 23±1° C., the humidity was 50-60%, and the rats took food and water freely.
The compound of Example 1, which was prepared into a solution/suspension with 0.5% of sodium carboxymethylcellulose (CMC-Na).
The rats were fasted for about 4 h. 2 mg/kg of the compound of Example 1 or 0.5% of CMC-Na were administrated intragastrically (i. g.) to the rats, and then 1.2 g/kg of urethane was injected intraperitoneally within 1 h. […] After centrifugalizing at 4000 rpm for 5 min, the supernatant fluid was sucked up, and the volume of each sample was measured accurately. […]
(§1) Gastric acid titration: the mean value (mean±S.D.) was calculated in each group by Excel software, t test was performed on the total acid value of gastric acid from treatment groups and model group subjects/animals at each time point after drug administration to judge whether a significant difference existed or not. […]

The test system is the same in test [2]. The experiment in a line: Inhibition of gastric acid secretion of rats with pyloric ligation induced ulcer, histamine-stimulated, 24 h after administration (Test Example 3). Type of test: in vivo, rat. The note with it: SD male rats, acid output within 3 h of histamine. The protocol: A rat gastric ulcer model, in which rat gastric acid secretion was promoted by pyloric ligation and histamine hydrochloride, was established in the following experiment, for evaluating the effect of the test compounds on inhibition of the gastric acid secretion.
Twenty-four (24) 7-week-old SD male rats with a weight of about 250 g were purchased form Sippr-BK (batch number: 2008001621913). The rats were fed by 4 rats/cage, 12/12 h light/dark cyclic regulation was performed, the temperature was constant at 23±1° C., the humidity was 50-60%, and the rats took food and water freely.
The compound of Example 1 was prepared into a solution/suspension with 0.5% of CMC-Na.
The rats were fasted for about 24 h. 4 mg/kg and 8 mg/kg of the compound of Example 1 or 0.5% of CMC-Na were administrated intragastrically (i. g) to the rats, and then 1.2 g/kg of urethane was injected intraperitoneally within 24 h. […] After centrifugalizing at 4000 rpm for 10 min, the supernatant fluid was sucked up, and the volume of each sample was measured accurately. […]
as §1

pIC50: −log10 of the molar value.

T1 sequence (P19156 2-1034 limits assumed): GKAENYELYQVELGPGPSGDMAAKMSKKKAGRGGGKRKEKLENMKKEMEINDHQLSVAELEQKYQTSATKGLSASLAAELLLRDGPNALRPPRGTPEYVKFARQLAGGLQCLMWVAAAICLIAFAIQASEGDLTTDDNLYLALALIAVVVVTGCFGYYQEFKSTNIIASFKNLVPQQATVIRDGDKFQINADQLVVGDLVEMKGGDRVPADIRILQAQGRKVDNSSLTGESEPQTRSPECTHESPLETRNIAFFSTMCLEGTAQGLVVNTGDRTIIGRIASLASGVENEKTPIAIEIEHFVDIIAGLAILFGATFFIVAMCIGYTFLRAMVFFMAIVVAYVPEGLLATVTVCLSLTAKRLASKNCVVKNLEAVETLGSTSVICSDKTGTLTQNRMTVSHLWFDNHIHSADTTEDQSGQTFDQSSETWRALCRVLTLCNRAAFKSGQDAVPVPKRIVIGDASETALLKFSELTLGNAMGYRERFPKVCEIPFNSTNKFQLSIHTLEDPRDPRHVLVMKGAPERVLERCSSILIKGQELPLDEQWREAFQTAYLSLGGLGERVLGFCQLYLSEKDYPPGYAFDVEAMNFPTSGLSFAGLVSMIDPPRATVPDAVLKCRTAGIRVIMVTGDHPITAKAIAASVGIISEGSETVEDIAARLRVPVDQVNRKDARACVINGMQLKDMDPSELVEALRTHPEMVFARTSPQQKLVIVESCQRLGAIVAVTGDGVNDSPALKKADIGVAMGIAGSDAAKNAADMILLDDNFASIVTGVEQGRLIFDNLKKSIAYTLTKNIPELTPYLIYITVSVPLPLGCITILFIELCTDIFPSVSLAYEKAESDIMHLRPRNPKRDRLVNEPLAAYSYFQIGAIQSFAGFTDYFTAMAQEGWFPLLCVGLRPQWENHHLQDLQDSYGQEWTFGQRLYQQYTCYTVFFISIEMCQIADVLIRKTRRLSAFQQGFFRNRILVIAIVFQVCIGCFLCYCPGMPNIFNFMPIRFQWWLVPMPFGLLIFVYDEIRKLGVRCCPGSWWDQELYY
T1 sequence (P18434 whole entry partner): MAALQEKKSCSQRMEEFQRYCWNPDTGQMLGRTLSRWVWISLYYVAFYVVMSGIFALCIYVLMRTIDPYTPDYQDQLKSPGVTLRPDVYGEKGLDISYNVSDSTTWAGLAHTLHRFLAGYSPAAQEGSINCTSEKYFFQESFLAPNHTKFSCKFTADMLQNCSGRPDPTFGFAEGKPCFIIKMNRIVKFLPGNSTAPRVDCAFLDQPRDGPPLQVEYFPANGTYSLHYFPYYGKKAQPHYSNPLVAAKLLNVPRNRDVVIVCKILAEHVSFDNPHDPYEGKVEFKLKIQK

A word on the pIC50: it is −log10 of the IC50, conventionally taken in molar units. Read a low pIC50 as a high IC50. For the compound `CNCc1cc(-c2ccccc2F)n(S(=O)(=O)c2cccc(OCC(=O)NC)c2)c1` [Example 1, 2-(3-((2-(2-fluorophenyl)-4-((methylamino)methyl)-1H-pyrrol-1-yl)sulfonyl)phenoxy)-N-methylacetamide], on H^+/K^+-ATPase, the pIC50 was 7.68. Besides, the “acid inhibition rate at 1 h” value in test [1] is 89.3%. Moreover, the “acid inhibition rate at 24 h” value is on record as 89.6% in test [2] (4 mg/kg i.g.) and 99.4% in test [2] (8 mg/kg i.g.).

With `CNCc1cc(-c2ccccc2F)n(S(=O)(=O)c2ccc(OCC(=O)NC)cc2)c1` [Example 4, 2-(4-((2-(2-fluorophenyl)-4-((methylamino)methyl)-1H-pyrrol-1-yl)sulfonyl)phenoxy)-N-methylacetamide], on H^+/K^+-ATPase, the pIC50 is 7.20. On the same count and under the same terms, under `CNCc1cc(-c2ccccc2F)n(S(=O)(=O)c2cccc(OCC3(C(=O)NC)CC3)c2)c1` [Example 5, 1-((3-((2-(2-fluorophenyl)-4-((methylamino)methyl)-1H-pyrrol-1-yl)sulfonyl)phenoxy)methyl)-N-methylcyclopropylcarboxamide] stands 7.09; under `CNCc1cc(-c2ccccc2F)n(S(=O)(=O)c2ccc(OCC3(C(=O)NC)CC3)cc2)c1` [Example 6, 1-((4-((2-(2-fluorophenyl)-4-((methylamino)methyl)-1H-pyrrol-1-yl)sulfonyl)phenoxy)methyl)-N-methylcyclopropylcarboxamide], 6.97; under `CNCc1cc(C2=CCCCC2)n(S(=O)(=O)c2cccc(OCC(=O)NC3CC3)c2)c1` [Example 7, 2-(3-((2-(cyclohex-1-en-1-yl)-4-((methylamino)methyl)-1H-pyrrol-1-yl)sulfonyl)phenoxy)-N-cyclopropylacetamide], 7.02.

For the compound `CNCc1cc(-c2ccccc2F)n(S(=O)(=O)c2cccc(OCC(=O)NCCO)c2)c1` [Example 10, 2-(3-((2-(2-fluorophenyl)-4-((methylamino)methyl)-1H-pyrrol-1-yl)sulfonyl)phenoxy)-N-(2-hydroxyethyl)acetamide], on H^+/K^+-ATPase, the pIC50 was 7.31. This pIC50 lies 0.29 log units higher than the previous one.

`CNCc1cc(-c2ccccc2F)n(S(=O)(=O)c2cccc(OCC(=O)NCCCO)c2)c1` [Example 11] showed a pIC50 against H^+/K^+-ATPase of 7.21.
